Results taken from US10933145B2, “Compositions and methods for reducing the risk of radiocontrast-induced nephropathy” (UNIVERSITY OF PITTSBURGH—OF THE COMMONWEALTH SYSTEM OF …, priority 2016, dated 2021).

Key:
[1] = test system: NFκB activity in MDCK cells; assay: NFκB activity in MDCK cells exposed to radiocontrast, with or without calcineurin inhibitor; assay type: cell-based, Canine; settings: MDCK cells treated with 16% radiocontrast; FIG. 4A
Excerpt: FIG. 4A-B. NFκB activity in MDCK cells exposed to increasing amounts of radiocontrast and treated with (A) FK506 (gray bar) or DMSO (as negative control, black bar) or (B) Cyclosporin A.
NFκB activity in MDCK cells exposed to increasing amounts of radiocontrast and treated with either FK506 (FIG. 4A) or cyclosporin A (FIG. 4B).

[2] = test system: NFAT activity in MDCK cells; assay: NFAT-luciferase reporter activity in MDCK cells; assay type: cell-based, Canine; settings: 16 percent radiocontrast, 3 hours, MDCK cells infected with Ad-NFAT-luciferase; FIG. 2
Protocol: FIG. 2. NFAT (Nuclear Factor of Activated T-cells) activity in MDCK cells measured via NFAT-luciferase expression at increasing concentrations of radiocontrast. MDCK were engineered to contain a reporter for inflammatory NFAT activity. In particular, MDCK cells were infected with Ad-NFAT-luciferase and treated for 3 hours with […] (0-16%) of iohexol radiocontrast. NFAT activity in MDCK cells was measured via NFAT-luciferase expression.

## CC(=O)N(CC(O)CO)c1c(I)c(C(=O)NCC(O)CO)c(I)c(C(=O)NCC(O)CO)c1I (centres unmarked) [iohexol radiocontrast, iohexol]
[1]
  increase in NFκB activation: approximately 5 fold
[2]
  NFAT activation relative to control: 40 fold
